Measurements from patent US20100272829A1, “COMPOSITION FOR TRANSDERMAL OR TRANSMUCOSAL ADMINISTRATION” (priority 2007, published 2010).

Tests used:
[1] = Yellowness (b* value) of water suspension samples allowed to stand outside for 10 days (photolysis); assay type: physicochemical; conditions: suspension in distilled water, dried and ground
Protocol: The following water suspension samples are charged in a glass bottle, allowed to stand outside for 10 days, dried and ground, and then yellowness (b* value) was measured by a colorimeter.

[2] = tested on: Malassezia furfur NBRC 0656; test: Antibacterial test I (MIC) by a liquid culture method; assay type: cell-based; conditions: Sabouraud glucose medium + 1% olive oil, shaking at 30° C., 10^6cfu/mL
Protocol: With respect to the composition of zinc pyrithione and hydrous titanium oxide of Example 2, an antibacterial test (MIC) against Malassezia furfur by a liquid culture method was performed in comparison with zinc pyrithione.
Sample 17: Composition of zinc pyrithione (manufactured by Arch Chemicals, Inc.) and hydrous titanium oxide (Example 2) Sample 18: Zinc pyrithione (manufactured by Arch Chemicals, Inc.) Test fungi: Malassezia furfur NBRC 0656 Test medium: 1% olive oil is added to Sabouraud glucose medium Test conditions: shaking culture at 30° C. for 4 days (120 rpm)

[3] = Solubility in artificial seawater (zinc determined by atomic absorption spectrometry); assay type: physicochemical
Protocol: The solubility of samples shown below in artificial sweater was measured.
Artificial sweater (pH of 7.8) was added to each sample shown below to make total amount of 500 mL, followed by shaking at 20° C. for 24 hours. After filtration, determination of zinc was performed by subjecting the filtrate to atomic absorption spectrometry.

[4] = tested on: Malassezia furfur NBRC 0656; test: Antibacterial test II (MIC) by an agar medium; assay type: cell-based; conditions: YM agar medium added with olive oil, 28° C., 10^5cfu/mL
Protocol: With respect to the composition of zinc pyrithione and hydrous titanium oxide (Example 3), an antibacterial test (MIC) against Malassezia furfur by an agar medium was performed in comparison with zinc pyrithione.
Sample 19: Composition of zinc pyrithione (manufactured by Kolon Life Science Inc.) and hydrous titanium oxide (Example 3) Sample 20: Zinc pyrithione (manufactured by Kolon Life Science Inc.) Test fungi: Malassezia furfur NBRC 0656 Test medium: YM agar medium added with olive oil Test conditions: culture at 28° C. for 7 days

[5] = artificial seawater pH 7.8, shaking at 20° C. for 24 hours, filtrate

Q: With zinc pyrithione [Sample 9] as the substance, how does the “Yellowness (b* value)” value [1] read?
A: 8.80

Q: For zinc pyrithione [Sample 2], which “MIC, 2 days” value ([2]; 2 days) is on record?
A: 6.25 µg/mL

Q: And the “MIC, 4 days” value ([2]; 4 days)?
A: 6.25 µg/mL

Q: And the “Solubility in artificial seawater I: Quantitative value of zinc” value [3, 5]?
A: 1.16 µg/mL

Q: What about the “Solubility in artificial seawater I: Value in terms of zinc pyrithione” value [3, 5] of the same substance?
A: 5.64 µg/mL

Q: With zinc pyrithione [Sample 6] as the substance, how does the “MIC, 7 days” value [4] read?
A: 6.25 µg/mL

Q: And the “Solubility in artificial seawater II: Value in terms of zinc pyrithione” value ([3]; artificial seawater pH 7.8, 20° C., 24 hours)?
A: 5.24 µg/mL

Q: And the “Solubility in artificial seawater II: Quantitative value of zinc” value ([3]; artificial seawater pH 7.8, 20° C., 24 hours, for samples 7 and 8 zinc derived from zinc pyrithione and zinc oxide)?
A: 1.07 µg/mL
